In general, Ki refers to a dissociation constant, usually derived from enzyme kinetics or from competition with a known ligand.

In assay [1] the test system is Mycobacterium tuberculosis H37Ra. Nature of the assay: Mycobacterium tuberculosis growth inhibition assay (microtiter dilution, resazurin reduction). Format: cell-based. To be noted: 7H9 broth, 9 days + 24 h resazurin, lowest concentration inhibiting resazurin reduction by >70%, several symbols in a cell = repeat determinations. The method in brief:
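M. tuberculosis H37Ra at ~1×10^6 cells/mL in 7H9 broth plus 10% ADC, exposed to 2-fold serial dilutions (7 or 11 steps) at 37 °C for 9 days. Resazurin then added, fluorescence (492/595 nm) read at baseline and after 24 h; MIC = lowest concentration inhibiting resazurin reduction >70% versus DMSO.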
In general terms: Resazurin is reduced to fluorescent resorufin, in cell work by metabolically active cells.

For another assay, the target named is T1, PknB (Mycobacterium tuberculosis, UniProt P9WI81).
T1 construct: made in house
T1 sequence (P9WI81 whole entry): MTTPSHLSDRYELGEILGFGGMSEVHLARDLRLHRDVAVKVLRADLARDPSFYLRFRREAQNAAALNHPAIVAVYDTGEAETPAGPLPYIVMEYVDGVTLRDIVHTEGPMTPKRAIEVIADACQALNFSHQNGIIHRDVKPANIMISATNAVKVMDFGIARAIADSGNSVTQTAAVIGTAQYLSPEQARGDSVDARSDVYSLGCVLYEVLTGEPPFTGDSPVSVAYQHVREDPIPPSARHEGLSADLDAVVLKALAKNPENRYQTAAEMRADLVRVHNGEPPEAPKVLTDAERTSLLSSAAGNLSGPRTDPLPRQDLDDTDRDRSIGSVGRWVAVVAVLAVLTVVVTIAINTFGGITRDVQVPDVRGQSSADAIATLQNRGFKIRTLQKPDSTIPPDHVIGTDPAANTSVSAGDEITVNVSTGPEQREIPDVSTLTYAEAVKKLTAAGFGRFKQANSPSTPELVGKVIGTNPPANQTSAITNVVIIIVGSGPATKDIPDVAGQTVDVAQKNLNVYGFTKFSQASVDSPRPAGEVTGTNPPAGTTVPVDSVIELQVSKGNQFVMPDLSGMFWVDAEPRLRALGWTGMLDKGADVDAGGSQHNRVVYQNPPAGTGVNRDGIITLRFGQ
Nature of the assay: biochemical. On the set-up: species or system M. tuberculosis. To be noted: for Ki: read-out: Ki Values.

Where [2] appears, read: 3 nM PknB, 6 uM GarA, 3 μM ATP, 30 min, competitive tight-binding fit, several symbols in a cell = repeat determinations.

Where a name gives a salt, the structure may show the parent alone. Read-outs that look alike come from different tables or passages of the source.

`NC(=O)c1ncc(Cl)c(Nc2cc(C3CC3)[nH]n2)n1` [Compound 303, 5-chloro-4-[(5-cyclopropyl-1H-pyrazol-3-yl)amino]-pyrimidine-2-carboxamide]: in assay [1], the MIC values entry is “B+”. Also, the Ki at PknB (setting [2]) fell in the range of 2000 to 4000 nM.
For the compound `NCc1ccc(-c2ncc(Cl)c(Nc3cc(C4CC4)n[nH]3)n2)s1` [Compound 141, 2-(5-(aminomethyl)thiophen-2-yl)-5-chloro-N-(3-cyclopropyl-1H-pyrazol-5-yl)pyrimidin-4-amine hydrochloride], the MIC values entry in assay [1] is reported as “B, C, C”. Moreover, the “Ki Values” at PknB is on record as “A, A, B**”.
In the case of `C#Cc1cnc(-c2ccc(C(O)CCCO)s2)nc1Nc1cc(C2CC2)[nH]n1` (centres unmarked) [Compound 223, 1-[5-[4-[(5-cyclopropyl-1H-pyrazol-3-yl)amino]-5-ethynyl-pyrimidin-2-yl]-2-thienyl]butane-1,4-diol], the MIC values result in assay [1] is “B++”. Moreover, at PknB (setting [2]), the Ki fell in the range of 1 to 10 nM.
As to `CNS(=O)(=O)c1ccc(-c2ncc(Cl)c(Nc3cc(C4CC4)n[nH]3)n2)cc1` [Compound 117, 4-[5-chloro-4-[(5-cyclopropyl-2H-pyrazol-3-yl)amino]-pyrimidin-2-yl]-N-methyl-benzenesulfonamide], the MIC values entry in assay [1] was “A, C, C”. Besides, the “Ki Values” on PknB (setting [2]) is “A*, A”.

Values taken from patent publication US20110053916A1 (Vertex Pharmaceuticals Incorporated, priority 2009, published 2011).
